Laboratory results published in publication PMC3589550 (Nature structural & molecular biology, 2011).
Ends that are not written are not given here.

Experiments:
HAUSP TRAF domain = assay: Competitive ITC: vIRF4^202–216 vs cellular substrate peptides on the TRAF domain; assay type: binding
[1] = target: HAUSP TRAF domain (HAUSP^62–205) (Homo sapiens, UniProt Q93009); assay type: binding; details: ITC
PEL cells = assay: Immunoblot of p53 and transcriptional targets, PEL cells; assay type: cell-based; details: various PEL cells, 6 h
HAUSP [2] = target: T1, HAUSP (Homo sapiens, UniProt Q93009); assay: In vitro DUB assay with ubiquitinated MDM2; assay type: biochemical; details: HAUSP preincubated with increasing concentrations of peptide
T1 sequence (Q93009 whole entry): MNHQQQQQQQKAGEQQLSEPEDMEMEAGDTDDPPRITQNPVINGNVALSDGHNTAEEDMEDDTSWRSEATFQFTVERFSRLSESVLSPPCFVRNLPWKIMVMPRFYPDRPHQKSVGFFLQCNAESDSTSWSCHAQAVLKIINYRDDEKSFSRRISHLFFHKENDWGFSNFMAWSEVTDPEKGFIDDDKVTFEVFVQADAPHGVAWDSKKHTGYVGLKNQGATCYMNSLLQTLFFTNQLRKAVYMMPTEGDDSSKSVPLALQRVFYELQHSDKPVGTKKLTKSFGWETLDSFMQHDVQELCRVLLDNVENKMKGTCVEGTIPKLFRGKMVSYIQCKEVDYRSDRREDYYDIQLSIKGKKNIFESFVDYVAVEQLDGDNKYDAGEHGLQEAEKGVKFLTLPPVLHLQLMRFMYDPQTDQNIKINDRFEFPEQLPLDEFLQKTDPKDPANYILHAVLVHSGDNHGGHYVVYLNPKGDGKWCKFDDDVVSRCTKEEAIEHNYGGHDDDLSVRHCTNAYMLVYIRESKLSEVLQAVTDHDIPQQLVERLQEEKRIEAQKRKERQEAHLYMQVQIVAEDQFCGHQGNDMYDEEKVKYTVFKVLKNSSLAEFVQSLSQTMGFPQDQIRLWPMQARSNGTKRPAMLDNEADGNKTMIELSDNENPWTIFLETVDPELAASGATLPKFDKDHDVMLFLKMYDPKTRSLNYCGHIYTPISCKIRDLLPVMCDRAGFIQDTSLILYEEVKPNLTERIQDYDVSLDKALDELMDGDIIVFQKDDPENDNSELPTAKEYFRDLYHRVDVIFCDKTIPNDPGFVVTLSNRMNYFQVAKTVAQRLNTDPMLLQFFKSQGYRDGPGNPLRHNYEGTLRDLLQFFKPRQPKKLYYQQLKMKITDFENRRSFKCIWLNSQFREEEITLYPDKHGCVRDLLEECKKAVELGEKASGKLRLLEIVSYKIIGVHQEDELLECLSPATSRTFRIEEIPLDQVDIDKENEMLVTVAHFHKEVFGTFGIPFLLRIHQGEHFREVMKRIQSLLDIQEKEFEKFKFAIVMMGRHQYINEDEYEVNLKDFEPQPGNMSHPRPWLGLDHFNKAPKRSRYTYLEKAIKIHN

BJAB cells = assay: Immunoblot of p53 pathway proteins, BJAB; assay type: cell-based; details: 6 h
HAUSP [3] = target: T1, HAUSP; assay: Co-IP / GST pull-down of HAUSP; assay type: binding; details: transfected 293T cells
HAUSP [4] = target: T1, HAUSP; assay: In vitro deubiquitination; assay type: biochemical

HAUSP TRAF domain (HAUSP^62–205), sequence (Q93009 62-205): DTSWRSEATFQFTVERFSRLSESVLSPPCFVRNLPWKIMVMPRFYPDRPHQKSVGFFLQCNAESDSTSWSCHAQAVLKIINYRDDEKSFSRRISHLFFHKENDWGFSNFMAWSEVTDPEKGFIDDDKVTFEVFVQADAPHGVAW

Row | Compound | association constant (Ka) (HAUSP TRAF domain; substrate peptide titrated into the HAUSP TRAF domain) [M⁻¹] | TRAF binding affinity, in words [1] | HAUSP levels (PEL cells) | HAUSP DUB activity toward ubiquitinated MDM2 (HAUSP [2]) | HAUSP levels (BJAB cells) | observed association constant (Kobs) (HAUSP TRAF domain; vIRF4^202–216 titrated as competitor against MDM2^137–152) [M⁻¹] | observed association constant (Kobs) (HAUSP TRAF domain; vIRF4^202–216 titrated as competitor against p53^350–364) [M⁻¹] | observed association constant (Kobs) (HAUSP TRAF domain; vIRF4^202–216 titrated as competitor against p53^355–369) [M⁻¹] | interaction with HAUSP (HAUSP [3]) | HAUSP enzymatic activity against K48-linked polyubiquitin chains (HAUSP [4]; K48-linked polyubiquitin chains) | HAUSP DUB activity (HAUSP [4]; purified HAUSP, K48- or K63-linked 3–7 polyubiquitin chains)
1 | DLVQELQEEKPSSSHL [MDM2^137–152, reference compound] | 91000 |  |  |  |  |  |  |  |  |  | 
2 | CC[C@H](C)[C@H](NC(=O)[C@H](Cc1c[nH]c2ccccc12)NC(=O)[C@@H](NC(=O)[C@@H](N)CO)C(C)C)C(=O)N1CCC[C@H]1C(=O)N[C@H](C(=O)N[C@@H](CC(N)=O)C(=O)N[C@@H](CCC(=O)O)C(=O)NCC(=O)N[C@@H](C)C(=O)N[C@@H](CO)C(=O)N[C@H](C(=O)N[C@@H](CO)C(=O)NCC(=O)N[C@@H](CCSC)C(=O)O)[C@@H](C)O)C(C)C [vif1] |  | binds to the HAUSP TRAF domain with the highest affinity among all reported substrates | Neither the vif1 nor vif2 peptide treatment altered HAUSP levels | effectively blocked HAUSP DUB activity when ubiquitinated MDM2 was used as a substrate | Neither the vif1 nor vif2 peptide treatment altered HAUSP levels | 1.09e+07 | 4.42e+07 | 3.58e+07 | individually capable of interacting with HAUSP | ineffectiveness against K48-linked polyubiquitin chains | minimally inhibited activity
